Earlier results on 14 molecules are cited in patent publication US8338072B2, “Resist composition, resist pattern forming process, and method for manufacturing semiconductor device” (Fujitsu Limited, priority 2006, dated 2012).

The conditions of one data set: Table 1, additives 4A to 4F.
As usually defined, the pKa is the negative logarithm of the acid dissociation constant. For the molecule `CCCCCCN` [Example 4E, Hexylamine], the pKa was 10.85.
With `CC(O)C(=O)O` (stereo not shown) [Example 4B, Lactic acid], the pKa was 4.57.
Regarding `CCCCCN` [Example 4F, Pentylamine], the pKa was 10.93.
For the molecule `NCCN` [Example 4D, Ethylenediamine], the pKa was 7.12.

Still in this data set, the particulars now being: values for example additives.
Consider `NCc1ccccc1O` [2-hydroxybenzylamine], for which the pKa is given as 8.63.
`c1ccc(Nc2ccccc2)cc1` [diphenylamine]: the pKa was 13.65.
Turning to `O=C(O)CCC(=O)O` [succinic acid], the pKa is recorded as 3.99.
In the case of `CCCN` [propylamine], the pKa is recorded as 10.93.
In the case of `NC1CCCC1` [cyclopentylamine], the pKa is given as 10.56.
`CCCC(=O)O` [butyric acid]: the pKa is 4.57.
methylpyridine: the pKa is given as 5.80-6.10.
Take `CCCCC(=O)O` [valeric acid]: the pKa is 5.17.
Consider `NC1CCCCC1` [cyclohexylamine], for which the pKa is given as 10.62.
For the molecule `O=C(O)/C=C/C(=O)O` [fumaric acid], the pKa is recorded as 3.07.
For the molecule `CCCCCN` [Example 4F, Pentylamine], the pKa is recorded as 10.93.
As to `NCCN` [Example 4D, Ethylenediamine], the pKa is 7.12.
